Experimental data: the NIST ThermoML archive (doi:10.1021/je500381c)

Test: xn = mol fraction of the nth substance listed
Conditions: for mass density / viscosity: 100 kPa, Liquid; for mass density: Vibrating tube method; for surface tension liquid-gas: Drop volume

CCC12CC3CC(CC(C3)C1)C2 [1-ethyladamantane] + CCCCCCCO
Conditions | mass density [kg/m3] | surface tension liquid-gas [mN/m] | viscosity [mPa·s]
293.15 K, x2 = 0 | 937.11 | – | 6.371
293.15 K, x2 = 0.0999 | 927.59 | – | 5.91
293.15 K, x2 = 0.1999 | 917.88 | – | 5.707
293.15 K, x2 = 0.2988 | 907.92 | – | 5.62
293.15 K, x2 = 0.3991 | 897.36 | – | 5.584
293.15 K, x2 = 0.4998 | 886.28 | – | 5.647
293.15 K, x2 = 0.5995 | 874.78 | – | 5.843
293.15 K, x2 = 0.7 | 862.6 | – | 6.077
293.15 K, x2 = 0.8002 | 849.85 | – | 6.41
293.15 K, x2 = 0.9 | 836.45 | – | 6.719
298.15 K, x2 = 0 | 933.58 | 29.87 | 5.565
298.15 K, x2 = 0.0999 | 924.02 | 29.66 | 5.136
298.15 K, x2 = 0.1999 | 914.26 | 29.21 | 4.958
298.15 K, x2 = 0.2988 | 904.28 | 28.87 | 4.86
298.15 K, x2 = 0.3991 | 893.7 | 28.72 | 4.836
298.15 K, x2 = 0.4998 | 882.65 | 28.42 | 4.859
298.15 K, x2 = 0.5995 | 871.16 | 28.1 | 4.989
298.15 K, x2 = 0.7 | 859.01 | 27.75 | 5.156
298.15 K, x2 = 0.8002 | 846.29 | 27.23 | 5.422
298.15 K, x2 = 0.9 | 832.93 | 26.74 | 5.683
303.15 K, x2 = 0 | 929.99 | – | 4.903
303.15 K, x2 = 0.0999 | 920.37 | – | 4.506
303.15 K, x2 = 0.1999 | 910.61 | – | 4.337
303.15 K, x2 = 0.2988 | 900.6 | – | 4.238
303.15 K, x2 = 0.3991 | 890.03 | – | 4.215
303.15 K, x2 = 0.4998 | 878.99 | – | 4.215
303.15 K, x2 = 0.5995 | 867.51 | – | 4.306
303.15 K, x2 = 0.7 | 855.39 | – | 4.424
303.15 K, x2 = 0.8002 | 842.7 | – | 4.63
303.15 K, x2 = 0.9 | 829.37 | – | 4.841
308.15 K, x2 = 0 | 926.4 | – | 4.348
308.15 K, x2 = 0.0999 | 916.7 | – | 3.965
308.15 K, x2 = 0.1999 | 906.92 | – | 3.814
308.15 K, x2 = 0.2988 | 896.92 | – | 3.722
308.15 K, x2 = 0.3991 | 886.35 | – | 3.692
308.15 K, x2 = 0.4998 | 875.31 | – | 3.681
308.15 K, x2 = 0.5995 | 863.84 | – | 3.742
308.15 K, x2 = 0.7 | 851.75 | – | 3.824
308.15 K, x2 = 0.8002 | 839.08 | – | 3.985
308.15 K, x2 = 0.9 | 825.79 | – | 4.154
313.15 K, x2 = 0 | 922.81 | – | 3.878
313.15 K, x2 = 0.0999 | 913.02 | – | 3.516
313.15 K, x2 = 0.1999 | 903.22 | – | 3.376
313.15 K, x2 = 0.2988 | 893.21 | – | 3.286
313.15 K, x2 = 0.3991 | 882.64 | – | 3.251
313.15 K, x2 = 0.4998 | 871.61 | – | 3.235
313.15 K, x2 = 0.5995 | 860.15 | – | 3.275
313.15 K, x2 = 0.7 | 848.08 | – | 3.331
313.15 K, x2 = 0.8002 | 835.43 | – | 3.454
313.15 K, x2 = 0.9 | 822.17 | – | 3.589
318.15 K, x2 = 0 | 919.21 | – | 3.478
318.15 K, x2 = 0.0999 | 909.33 | – | 3.135
318.15 K, x2 = 0.1999 | 899.51 | – | 3.003
318.15 K, x2 = 0.2988 | 889.49 | – | 2.922
318.15 K, x2 = 0.3991 | 878.91 | – | 2.882
318.15 K, x2 = 0.4998 | 867.88 | – | 2.859
318.15 K, x2 = 0.5995 | 856.43 | – | 2.884
318.15 K, x2 = 0.7 | 844.37 | – | 2.919
318.15 K, x2 = 0.8002 | 831.75 | – | 3.012
318.15 K, x2 = 0.9 | 818.53 | – | 3.12
323.15 K, x2 = 0 | 915.62 | – | 3.134
323.15 K, x2 = 0.0999 | 905.62 | – | 2.811
323.15 K, x2 = 0.1999 | 895.76 | – | 2.687
323.15 K, x2 = 0.2988 | 885.74 | – | 2.608
323.15 K, x2 = 0.3991 | 875.17 | – | 2.569
323.15 K, x2 = 0.4998 | 864.13 | – | 2.54
323.15 K, x2 = 0.5995 | 852.69 | – | 2.555
323.15 K, x2 = 0.7 | 840.64 | – | 2.573
323.15 K, x2 = 0.8002 | 828.04 | – | 2.644
323.15 K, x2 = 0.9 | 814.85 | – | 2.728
328.15 K, x2 = 0 | 912.01 | – | 2.838
328.15 K, x2 = 0.0999 | 901.91 | – | 2.531
328.15 K, x2 = 0.1999 | 892.03 | – | 2.413
328.15 K, x2 = 0.2988 | 881.97 | – | 2.338
328.15 K, x2 = 0.3991 | 871.39 | – | 2.299
328.15 K, x2 = 0.4998 | 860.35 | – | 2.267
328.15 K, x2 = 0.5995 | 848.92 | – | 2.271
328.15 K, x2 = 0.7 | 836.88 | – | 2.28
328.15 K, x2 = 0.8002 | 824.29 | – | 2.333
328.15 K, x2 = 0.9 | 811.13 | – | 2.399
333.15 K, x2 = 0 | 908.41 | – | 2.581
333.15 K, x2 = 0.0999 | 898.19 | – | 2.291
333.15 K, x2 = 0.1999 | 888.26 | – | 2.178
333.15 K, x2 = 0.2988 | 878.19 | – | 2.106
333.15 K, x2 = 0.3991 | 867.59 | – | 2.066
333.15 K, x2 = 0.4998 | 856.55 | – | 2.033
333.15 K, x2 = 0.5995 | 845.11 | – | 2.03
333.15 K, x2 = 0.7 | 833.08 | – | 2.033
333.15 K, x2 = 0.8002 | 820.51 | – | 2.07
333.15 K, x2 = 0.9 | 807.38 | – | 2.121
